Source: US20230085307A1, “PYRIDAZINONE COMPOUND AND HERBICIDE” (NISSAN CHEMICAL CORPORATION, priority 2019, published 2023)

Assays:
late watergrass [1] = assay: Test Example 1: herbicidal activity, application before weed generation under submerged conditions (Table 16, symbol A); assay type: in vivo, late watergrass (Echinochloa oryzicola); conditions: 320 g/ha applied herbicide
Summary of the method: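 Submerged Wagner pots (alluvial soil, 4 cm water) sown with weed seeds and planted with 2.5-leaf rice seedlings; emulsifiable concentrate diluted in water applied to water surface on sowing day. Held in greenhouse at 25-30 °C; injury scored 0-5 by herbicidal rate after three weeks.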

late watergrass [2] = assay: Test Example 2: herbicidal activity, application during weed generation under submerged conditions (Table 17, symbol A); assay type: in vivo, late watergrass (Echinochloa oryzicola); conditions: AAH 320 g/ha; application during weed generation, submerged conditions
Summary of the method: (§1)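 Wagner pot, alluvial soil, 4 cm flood; mixed sowing of all species; greenhouse 25° C.–30° C. Emulsifiable formulation, water-diluted to predetermined dose, applied to paddy water at 1–2 leaf stage. Effect rated at 3 wk using the earlier test's scoring criteria.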

Japanese bulrush = assay: Test Example 2: herbicidal activity, application during weed generation under submerged conditions (Table 17, symbol B); assay type: in vivo, Japanese bulrush (Schoenoplectus juncoides); conditions: AAH 320 g/ha; application during weed generation, submerged conditions
Summary of the method: as §1

barnyard grass = assay: Test Example 3: herbicidal effect by foliage application, Wagner pot (Table 18, symbol H); assay type: in vivo, barnyard grass (Echinochloa crus-galli); conditions: for herbicidal effect on H (barnyard grass), rating 0-5: 320 g/ha
Summary of the method: (§2)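 Plants were sown in alluvial soil held under 0.1–0.5 cm standing water and grown 14 days in a greenhouse at 25–30 °C. An emulsifiable formulation, water-diluted to the set dose, was then sprayed onto the foliage, and effects were scored three weeks later using previously defined criteria.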

Chinese sprangletop = assay: Test Example 3: herbicidal effect by foliage application, Wagner pot (Table 18, symbol D); assay type: in vivo, chinese sprangletop (Leptochloa chinensis); conditions: for herbicidal effect on D (Chinese sprangletop), rating 0-5: 320 g/ha
Summary of the method: as §2

southern crabgrass [3] = assay: Test Example 4: herbicidal effect by soil treatment (Table 19, symbol F); assay type: in vivo, southern crabgrass (Digitaria ciliaris); conditions: for herbicidal effect rating, F: southern crabgrass: 320 g/ha
Summary of the method: (§3)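 Three weeks of greenhouse growth at 25° C. to 30° C. followed a uniform surface spray of water-diluted emulsion at a predetermined herbicide amount. Seeds had been sown beforehand under about 1.5 cm of sterilized diluvial soil. Grading followed criteria set out in an earlier test.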

blackgrass = assay: Test Example 4: herbicidal effect by soil treatment (Table 19, symbol J); assay type: in vivo, blackgrass (Alopecurus myosuroides); conditions: for herbicidal effect rating, J: blackgrass: 320 g/ha
Summary of the method: as §3

Italian ryegrass [4] = assay: Test Example 4: herbicidal effect by soil treatment (Table 19, symbol K); assay type: in vivo, Italian ryegrass (Lolium multiflorum); conditions: for herbicidal effect rating, K: Italian ryegrass: 320 g/ha
Summary of the method: as §3

windgrass [5] = assay: Test Example 4: herbicidal effect by soil treatment (Table 19, symbol L); assay type: in vivo, windgrass (Apera spica-venti); conditions: for herbicidal effect rating, L: windgrass: 320 g/ha
Summary of the method: as §3

velvetleaf = assay: Test Example 4: herbicidal effect by soil treatment (Table 19, symbol M); assay type: in vivo, velvetleaf (Abutilon theophrasti); conditions: for herbicidal effect rating, M: velvetleaf: 320 g/ha
Summary of the method: as §3

lambsquarters [6] = assay: Test Example 4: herbicidal effect by soil treatment (Table 19, symbol O); assay type: in vivo, lambsquarters (Chenopodium album); conditions: for herbicidal effect rating, O: lambsquarters: 320 g/ha
Summary of the method: as §3

persian speedwell [7] = assay: Test Example 4: herbicidal effect by soil treatment (Table 19, symbol R); assay type: in vivo, Persian speedwell (Veronica persica); conditions: for herbicidal effect rating, R: persian speedwell: 320 g/ha
Summary of the method: as §3

southern crabgrass [8] = assay: Test Example 5: herbicidal effect by foliage application, plastic box (Table 20, symbol F); assay type: in vivo, southern crabgrass (Digitaria ciliaris); conditions: foliage application; for effect on southern crabgrass (F): 320 g/ha, 3 weeks after application
Summary of the method: (§4)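 Plants sown in sterilized diluvial soil and grown 14 days in a greenhouse at 25° C to 30° C, then sprayed on the foliage with the compound's emulsion diluted in water to a predetermined herbicide amount. Injury to weeds and crops scored three weeks after application on a visual rating scale.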

Italian ryegrass [9] = assay: Test Example 5: herbicidal effect by foliage application, plastic box (Table 20, symbol K); assay type: in vivo, Italian ryegrass (Lolium multiflorum); conditions: foliage application; for effect on Italian ryegrass (K): 320 g/ha, 3 weeks after application
Summary of the method: as §4

windgrass [10] = assay: Test Example 5: herbicidal effect by foliage application, plastic box (Table 20, symbol L); assay type: in vivo, windgrass (Apera spica-venti); conditions: foliage application; for effect on windgrass (L): 320 g/ha, 3 weeks after application
Summary of the method: as §4

lambsquarters [11] = assay: Test Example 5: herbicidal effect by foliage application, plastic box (Table 20, symbol O); assay type: in vivo, lambsquarters (Chenopodium album); conditions: foliage application; for effect on lambsquarters (O): 320 g/ha, 3 weeks after application
Summary of the method: as §4

persian speedwell [12] = assay: Test Example 5: herbicidal effect by foliage application, plastic box (Table 20, symbol R); assay type: in vivo, Persian speedwell (Veronica persica); conditions: foliage application; for effect on persian speedwell (R): 320 g/ha, 3 weeks after application
Summary of the method: as §4

[13] = amount of applied herbicide 320 g/ha
[14] = AAH 320 g/ha, evaluated three weeks after application

SMILES	Herbicidal effect on A: late watergrass (grade 0-5) (late watergrass [1])	herbicidal effect rating, A: late watergrass (late watergrass [2])	herbicidal effect rating, B: Japanese bulrush (Japanese bulrush)	herbicidal effect on H (barnyard grass), rating 0-5 (barnyard grass)	herbicidal effect on D (Chinese sprangletop), rating 0-5 (Chinese sprangletop)	herbicidal effect rating, F: southern crabgrass (southern crabgrass [3])	herbicidal effect rating, J: blackgrass (blackgrass)	herbicidal effect rating, K: Italian ryegrass (Italian ryegrass [4])	herbicidal effect rating, L: windgrass (windgrass [5])	herbicidal effect rating, M: velvetleaf (velvetleaf)	herbicidal effect rating, O: lambsquarters (lambsquarters [6])	herbicidal effect rating, R: persian speedwell (persian speedwell [7])	effect on southern crabgrass (F) (southern crabgrass [8])	effect on Italian ryegrass (K) (Italian ryegrass [9])	effect on windgrass (L) (windgrass [10])	effect on lambsquarters (O) (lambsquarters [11])	effect on persian speedwell (R) (persian speedwell [12])	also measured
CCCC(=O)Oc1c(C)nn(C)c(=O)c1-c1c(-c2ccc(COC)cc2)sc2ccc(F)cc12 [2-023]	2 (Herbicidal rate of 20% or more and less than 40%)	3 (Herbicidal rate of 40% or more and less than 70%)	0 (Herbicidal rate of 5% or less (almost no effect))	5 (Herbicidal rate of 90% or more (almost completely withered))	4 (Herbicidal rate of 70% or more and less than 90%)	4 (Herbicidal rate of 70% or more and less than 90%)	3 (Herbicidal rate of 40% or more and less than 70%)	4 (Herbicidal rate of 70% or more and less than 90%)	0 (Herbicidal rate of 5% or less (almost no effect))	2 (Herbicidal rate of 20% or more and less than 40%)	5 (Herbicidal rate of 90% or more (almost completely withered))	5 (Herbicidal rate of 90% or more (almost completely withered))	5 (Herbicidal rate of 90% or more (almost completely withered))	4 (Herbicidal rate of 70% or more and less than 90%)	4 (Herbicidal rate of 70% or more and less than 90%)	4 (Herbicidal rate of 70% or more and less than 90%)	5 (Herbicidal rate of 90% or more (almost completely withered))	
CCCC(=O)Oc1c(C)nn(C)c(=O)c1-c1c(-c2ccc(Cl)cc2)sc2ccc(F)cc12 [2-011]	3 (Herbicidal rate of 40% or more and less than 70%)	2 (Herbicidal rate of 20% or more and less than 40%)	3 (Herbicidal rate of 40% or more and less than 70%)	5 (Herbicidal rate of 90% or more (almost completely withered))	4 (Herbicidal rate of 70% or more and less than 90%)	3 (Herbicidal rate of 40% or more and less than 70%)	0 (Herbicidal rate of 5% or less (almost no effect))	5 (Herbicidal rate of 90% or more (almost completely withered))	2 (Herbicidal rate of 20% or more and less than 40%)	3 (Herbicidal rate of 40% or more and less than 70%)	5 (Herbicidal rate of 90% or more (almost completely withered))	4 (Herbicidal rate of 70% or more and less than 90%)	4 (Herbicidal rate of 70% or more and less than 90%)	5 (Herbicidal rate of 90% or more (almost completely withered))	3 (Herbicidal rate of 40% or more and less than 70%)	5 (Herbicidal rate of 90% or more (almost completely withered))	5 (Herbicidal rate of 90% or more (almost completely withered))	
Cc1ccccc1C(=O)Oc1c(C)nn(C)c(=O)c1-c1c(-c2ccc(OC(F)F)cc2)sc2ccc(F)cc12 [2-285]	5 (Herbicidal rate of 90% or more (almost completely withered))	3 (Herbicidal rate of 40% or more and less than 70%)	3 (Herbicidal rate of 40% or more and less than 70%)															herbicidal effect on H: barnyard grass (barnyard grass; [13]): 5 (Herbicidal rate of 90% or more (almost completely withered)); herbicidal effect on D: Chinese sprangletop (Chinese sprangletop; [13]): 3 (Herbicidal rate of 40% or more and less than 70%); herbicidal effect on F: southern crabgrass (southern crabgrass [3]; [13]): 0 (Herbicidal rate of 5% or less (almost no effect)); herbicidal effect on J: blackgrass (blackgrass; [13]): 0 (Herbicidal rate of 5% or less (almost no effect)); herbicidal effect on K: Italian ryegrass (Italian ryegrass [4]; [13]): 2 (Herbicidal rate of 20% or more and less than 40%); herbicidal effect on L: windgrass (windgrass [5]; [13]): 0 (Herbicidal rate of 5% or less (almost no effect)); herbicidal effect on M: velvetleaf (velvetleaf; [13]): 0 (Herbicidal rate of 5% or less (almost no effect)); herbicidal effect on O: lambsquarters (lambsquarters [6]; [13]): 0 (Herbicidal rate of 5% or less (almost no effect)); herbicidal effect on R: persian speedwell (persian speedwell [7]; [13]): 3 (Herbicidal rate of 40% or more and less than 70%); F: southern crabgrass, herbicidal effect (criteria 0-5) (southern crabgrass [8]; [14]): 1 (Herbicidal rate of 5% or more and less than 20%); K: Italian ryegrass, herbicidal effect (criteria 0-5) (Italian ryegrass [9]; [14]): 4 (Herbicidal rate of 70% or more and less than 90%); L: windgrass, herbicidal effect (criteria 0-5) (windgrass [10]; [14]): 0 (Herbicidal rate of 5% or less (almost no effect)); O: lambsquarters, herbicidal effect (criteria 0-5) (lambsquarters [11]; [14]): 5 (Herbicidal rate of 90% or more (almost completely withered)); R: persian speedwell, herbicidal effect (criteria 0-5) (persian speedwell [12]; [14]): 5 (Herbicidal rate of 90% or more (almost completely withered))
